Laboratory results reported in US20220380341A1, “INHIBITORS OF HIV-1 NEF FOR THE TREATMENT OF HIV DISEASE” (priority 2018, published 2022).
Read-outs that look alike come from different tables or passages of the source.

Assays:
HIV-1NL4-3 = test: HIV-1 infectivity assay in TZM-bl reporter cell line (LTR-luciferase, 48 h); type: cell-based; conditions: Human immunodeficiency virus 1, TZM-bl
Procedure, shortened: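 TZM-bl cells infected with HIV-1NL4-3 ± compound (1 μM), luciferase measured at 48 h. Normalization: DMSO/wild-type = 0% inhibition, DMSO/Nef-defective = 100% of Nef-dependent effect.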

TZM-bl cell line = type: cell-based; conditions: human, 1 μM
Procedure, shortened: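 Luciferase read-out 48 h post-infection; compound at 1 μM during HIV-1NL4-3 infection of TZM-bl cells. Percent inhibition scaled to DMSO wild-type virus (0%) and DMSO Nef-defective virus (100% of Nef-dependent effect). Viability checked separately in uninfected cells by Cell Titer Blue.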

HIV-1 NefNL4-3 = HIV-1 NefNL4-3 (Human immunodeficiency virus type 1 group M subtype B, UniProt P03406, A33V/T15A/T51N/V11I); test: Surface plasmon resonance binding to recombinant full-length Nef (NL4-3); conditions: for RU30/RUNef (extent of binding): response units at 30 μM relative to Nef immobilized on the SPR chip
[1] = 48 h, Table 1, TZM-bl cells, 1 μM, 48 h, 100% = Nef-defective HIV-1, read-out: HIV-1 Infectivity % Inhibition Norm. to Δ-Nef @ 1 μM
[2] = 1.0 μM, TZM-bl reporter cell line, Table 4, read-out: % Infectivity Inhibition
[3] = KD, M, Table 4, SPR fit 1:1 Langmuir, KD = koff/kon
[4] = Table 4, 1:1 Langmuir fit, T = 1/koff
[5] = KD, M, Table 4, SPR fit 2-step induced fit, KD = koff/kon × koff2/(koff2 + kon2)
[6] = Nef NL4-3 Binding, SPR 2-state fitting KD, Table 1, 2-step induced-fit model
[7] = Table 4, 2-step induced fit, T = 1/koff2
[8] = read-out: Nef NL4-3 Binding, SPR 1:1 or 2-site fitting KD2, Table 1, 2-site fit, second component

| SMILES | inhibition at 1 µM (HIV-1NL4-3; [1]) [%] | Percent Viability @ 1 μM (TZM-bl cells) (TZM-bl cell line) [%] | Kd (HIV-1 NefNL4-3) [nM] | inhibition at 1 µM (HIV-1NL4-3; [2]) [%] | % Cell Viability (TZM-bl cell line) [%] | Kd (HIV-1 NefNL4-3; [3]) [nM] | T, minutes (residence time) (HIV-1 NefNL4-3; [4]) | RU30/RUNef (extent of binding) (HIV-1 NefNL4-3) | Kd (HIV-1 NefNL4-3; [5]) [nM] | Kd (HIV-1 NefNL4-3; [6]) [nM] | T, minutes (residence time) (HIV-1 NefNL4-3; [7]) [E + 00 minutes] | Kd (HIV-1 NefNL4-3; [8]) [nM] |
| --- | --- | --- | --- | --- | --- | --- | --- | --- | --- | --- | --- | --- |
| CC(=O)N1CCC(c2nn(-c3nc4cc(Cl)ccc4[nH]3)c(O)c2CCC2CCOCC2)CC1 [Compound I-703, 1-{4-[1-(5-chloro-1H-1,3-benzodiazol-2-yl)-5-hydroxy-4-[2-(oxan-4-yl)ethyl]-1H-pyrazol-3-yl]piperidin-1-yl}ethan-1-one] | -8.1 | 99.2 | 1540 | – | – | – | – | – | – | – | – | – |
| CC(=O)N1CCC(c2nn(-c3nc4cc(Cl)ccc4[nH]3)c(O)c2CCn2nccn2)CC1 [Compound I-704, 1-{4-[1-(5-chloro-1H-1,3-benzodiazol-2-yl)-5-hydroxy-4-[2-(2H-1,2,3-triazol-2-yl)ethyl]-1H-pyrazol-3-yl]piperidin-1-yl}ethan-1-one] | 6.6 | 99.4 | 3620 | 6.6 | 99.4 | 3620 | 7.61E + 00 minutes | 1.92E- 03 | – | – | – | – |
| COC(=O)N1CCC(c2nn(-c3nc4cc(Cl)ccc4[nH]3)c(O)c2CCn2nccn2)CC1 [Compound I-705, methyl 4-[1-(5-chloro-1H-1,3-benzodiazol-2-yl)-5-hydroxy-4-[2-(2H-1,2,3-triazol-2-yl)ethyl]-1H-pyrazol-3-yl]piperidine-1-carboxylate] | -13.8 | 100.9 | 1110 | – | – | – | – | – | – | – | – | – |
| CS(=O)(=O)N1CCC(c2nn(-c3nc4cc(Cl)ccc4[nH]3)c(O)c2CCC2CCOCC2)CC1 [Compound I-706, 1-(5-chloro-1H-1,3-benzodiazol-2-yl)-3-(1-methanesulfonylpiperidin-4-yl)-4-[2-(oxan-4-yl)ethyl]-1H-pyrazol-5-ol] | 9.8 | 98.6 | 1170 | 9.8 | 98.6 | 1170 | 3.95E + 00 minutes | 2.34E- 03 | – | – | – | – |
| CS(=O)(=O)N1CCC(c2nn(-c3nc4cc(Cl)ccc4[nH]3)c(O)c2CCn2nccn2)CC1 [Compound I-707, 1-(5-chloro-1H-1,3-benzodiazol-2-yl)-3-(1-methanesulfonylpiperidin-4-yl)-4-[2-(2H-1,2,3-triazol-2-yl)ethyl]-1H-pyrazol-5-ol] | -10.6 | 109.3 | 1980 | 0 | 100 | 1980 | 4.33E + 00 minutes | 1.81E- 03 | – | – | – | – |
| COC(=O)N1CCC(CCc2c(-c3ccc(C(F)(F)F)cn3)nn(-c3nc4cc(Br)ccc4[nH]3)c2O)CC1 [Compound I-708, methyl 4-{2-[1-(5-bromo-1H-1,3-benzodiazol-2-yl)-5-hydroxy-3-[5-(trifluoromethyl)pyridin-2-yl]-1H-pyrazol-4-yl]ethyl}piperidine-1-carboxylate] | 117 | 77.8 | 1.4 | 100 | 77.8 | 1.4 | 1.00E + 04 minutes | 2.04E- 03 | – | – | – | – |
| CC(=O)N1CCC(CCc2c(-c3ccc(C(F)(F)F)cn3)nn(-c3nc4cc(Br)ccc4[nH]3)c2O)CC1 [Compound I-709, 1-(4-{2-[1-(5-bromo-1H-1,3-benzodiazol-2-yl)-5-hydroxy-3-[5-(trifluoromethyl)pyridin-2-yl]-1H-pyrazol-4-yl]ethyl}piperidin-1-yl)ethan-1-one] | 66.7 | 74.0 | 26.3 | 66.7 | 74.0 | 26.3 | 5.18E + 02 minutes | 8.85E- 04 | – | – | – | – |
| O=C(c1ccc(F)cc1)N1CCC(CCc2c(C3CC3)nn(-c3nc4cc(Cl)ccc4[nH]3)c2O)CC1 [Compound I-710, 1-(5-chloro-1H-1,3-benzodiazol-2-yl)-3-cyclopropyl-4-{2-[1-(4-fluorobenzoyl)piperidin-4-yl]ethyl}-1H-pyrazol-5-ol] | 2.5 | 106.9 | – | 2.5 | 100 | – | – | 2.12E- 02 | 2460 | 2460 | 4.16 | 9780 |
| O=C(C1CC1)N1CCC(CCc2c(C3CC3)nn(-c3nc4cc(Cl)ccc4[nH]3)c2O)CC1 [Compound I-711, 1-(5-chloro-1H-1,3-benzodiazol-2-yl)-4-[2-(1-cyclopropanecarbonylpiperidin-4-yl)ethyl]-3-cyclopropyl-1H-pyrazol-5-ol] | -0.4 | 97.2 | – | 0 | 97.2 | – | – | 1.96E- 02 | 3290 | 3290 | 5.97 | 8640 |
